The target in experiment [1] is T1, PTPN2 (Homo sapiens, UniProt P17706).
T1 sequence (P17706 1-415): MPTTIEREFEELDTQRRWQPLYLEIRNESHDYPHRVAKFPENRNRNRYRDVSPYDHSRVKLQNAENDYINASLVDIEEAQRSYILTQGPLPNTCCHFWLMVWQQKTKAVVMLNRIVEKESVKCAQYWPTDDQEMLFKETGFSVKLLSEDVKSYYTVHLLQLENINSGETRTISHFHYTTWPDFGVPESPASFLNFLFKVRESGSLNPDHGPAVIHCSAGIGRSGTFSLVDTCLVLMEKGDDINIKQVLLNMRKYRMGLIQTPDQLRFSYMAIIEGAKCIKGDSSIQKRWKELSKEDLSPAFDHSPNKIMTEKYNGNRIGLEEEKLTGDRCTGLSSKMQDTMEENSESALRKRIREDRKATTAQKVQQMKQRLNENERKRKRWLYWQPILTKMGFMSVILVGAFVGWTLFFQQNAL
As to the kind of experiment: Phosphatase activity assay (Bio-Biochem-DiFMUP), PTPN2. Conditions: DiFMUP substrate, room temperature. It is filed as biochemical. The method in brief: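 Buffer was 50 mM Bis-Tris pH 6.3, 2 mM EDTA, 5 mM DMH, with 10 μM FDP or DiFMUP substrate, enzyme added last, at room temperature. Fluorescent product was read continuously for 15–30 min (DiFMU ex 360/em 450 nm; FMP ex 440/em 530 nm). Initial rates against 10-point inhibitor series were fitted with a 4-parameter equation to give IC50.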

In experiment [2] the test system is B16F10 mouse melanoma cells. The experiment can be described thus: MHC expression associated with IFNγ signaling, flow cytometry. It is filed as cell-based. Conditions: B16-F10, 3 uM compound, 48 hours, normalized to DMSO/with IFNγ control, read-out: % MHC in cells treated with Compound at 3 uM relative to negative control (DMSO). As for the experimental part: B16F10 mouse melanoma cells (ATCC Cat #CRL-6475, Manassas, VA) are seeded at approximately a density of 500 cells per well in a 384-well clear bottom plate (Corning Cat #3765, Corning, 5 NY) in 25 μL total volume of DMEM+10% FBS (Sigma Cat #D6429 and Sigma Cat #F4135, St. Louis, MO). Cells are allowed to adhere overnight at 37° C.+5% CO2. On the following day, 12.5 μL of mouse IFNγ (RD systems Cat #485-MI/CF, Minneapolis, MN) is added to half of the plate (columns 13-24) at a concentration of 2 ng/mL for a final assay concentration of 0.5 ng/mL of IFNγ. Media only (12.5 μL of DMEM+10% FBS) is added to the remainder of the 10 plate (columns 1-12). Next, compounds resuspended in DMSO (Sigma Cat #D2650) at 100 mM are diluted in semi-log dilutions in DMSO ranging from 100 mM to 0.001 mM and DMSO only controls are included. The compound/DMSO dilutions are further diluted 1:250 in DMEM+10% FBS, and 12.5 μL of these dilutions are added in triplicates to cells of both treatment arms (with and without IFNγ). Compounds are only dosed in the inner 240 wells, avoiding the outer 2-well perimeter of the plate to minimize edge effects. Finally, the plate is loaded into an IncuCyte® S3 Live Cell Analysis System (Essen Bioscience-Sartorius, Ann Arbor, MI) maintained in a 37° C.+5% CO2 incubator, allowed to equilibrate for 2 hours, and treated for 48 hours. MHC levels are measured by flow cytometry using a FITC anti-mouse H-2kb antibody (clone AF6-88.5), and levels are normalized based on DMSO/with IFNγ control. Table 7 below summarizes the percentage in MHC expression in cells treated with or without compounds disclosed herein at a specified concentration.
On the technique in general: Flow cytometry measures light scatter and fluorescence of single cells or particles in a stream.

Each structure is given as a SMILES string.

Regarding `CN1CCCC(COc2ccc3cc(O)c(N4CC(=O)NS4(=O)=O)c(F)c3n2)C1` (centres unmarked) [Compound 176], the half-inhibitory concentration (IC50) in experiment [1] was at most 1000 nM. Also, the activation at 3 µM in experiment [2] is over 10%.

In the case of `O=C1CN(c2c(O)cc3ccc(OCC4CCS(=O)(=O)CC4)nc3c2F)S(=O)(=O)N1` [Compound 143], in experiment [1], the IC50 is at most 1000 nM. The activation at 3 µM in experiment [2] is over 10%.

Take `COc1ccc2cc(O)c(N3CC(=O)NS3(=O)=O)c(F)c2n1` [Compound 154]: the IC50 in experiment [1] is at most 1000 nM. For the same compound, in experiment [2], the activation at 3 µM is over 10%.

As to `CC(C)CCOc1ccc2cc(O)c(N3CC(=O)NS3(=O)=O)c(F)c2n1` [Compound 135, 5-(8-fluoro-6-hydroxy-2-(isopentyloxy)quinolin-7-yl)-1,2,5-thiadiazolidin-3-one 1,1-dioxide], the concentration for half-maximal inhibition (IC50) in experiment [1] was at most 1000 nM. Moreover, the activation at 3 µM in experiment [2] is over 10%.

In the case of `CNc1ccc2cc(O)c(N3CC(=O)NS3(=O)=O)c(F)c2n1` [Compound 153], the IC50 in experiment [1] is at most 1000 nM. Moreover, the activation at 3 µM in experiment [2] was over 10%.

As to `CC(C)CCNc1ccc2cc(O)c(N3CC(=O)NS3(=O)=O)c(F)c2n1` [Compound 117], the IC50 in experiment [1] was at most 1000 nM. Moreover, in experiment [2], the activation at 3 µM was over 10%.

`CN(C)CCOc1ccc2cc(O)c(N3CC(=O)NS3(=O)=O)c(F)c2n1` [Compound 178]: the IC50 in experiment [1] is at most 1000 nM. Further, the activation at 3 µM in experiment [2] is over 10%.

One may read the IC50 as the concentration at which inhibition is half-maximal.
